Test results taken from patent US20250129090A1, “COMPOSITIONS USEFUL FOR MODULATING SPLICING” (SKYHAWK THERAPEUTICS, INC., priority 2021, published 2025).
pEC50, pIC50: −log10 of the molar value.

What was measured:
total ATXN3 protein = assay: ATXN3 Total Protein Assay; assay type: cell-based; details: Human neuroblastoma SK-N-MC cells, incubation 48 hours, MSD assay; read-out: ATXN3 Protein Potency IC50
Experimental: Human neuroblastoma SK-N-MC cells were seeded at 10,000 cells/well in 384 well plates one day prior to compound treatment. The concentrations of compounds were tested at appropriate doses ranging from 30 μM to 0.6 nM. After incubation for 48 hours, the cells were lysed with 25 μL of lysis buffer containing protease inhibitors, and total ATXN3 protein levels were assessed by Mesoscale Discovery (MSD) assay developed with one pair of anti-ATXN3 antibodies. The capture and detect antibodies were raised in mouse and rabbit respectively. Anti-rabbit MSD-ST antibody was used for secondary antibody.
ATXN3 recombinant protein was used for standards. The readouts were captured with 35 μL of MSD read buffer and multi-array 384-well high binding plates.

[1] = system: exon 4 skipped transcripts of ATXN3; assay: ATXN3 Quantitative Splicing Assay; assay type: cell-based; details: Human neuroblastoma SK-N-MC cells, treated 24 h, qPCR; read-out: ATXN 3 E4 Skipping EC50
Experimental: Human neuroblastoma SK-N-MC cells were plated in 384-well plates at 20,000 cells/well. Twenty-four hours after plating, cells were treated with compounds for 24 h at appropriate concentrations ranging from 30 µM to 0.6 nM (0.3% DMSO). Treated cells were lysed in 15 μL of lysis buffer, and cDNA was synthesized using the Fast Advanced Cells-to-Ct kit. Two μL of each cDNA was used in qPCR reactions to confirm the exon 4 skipped transcripts of ATXN3. A second set of primers/probe E4E5 was used to detect the transcripts containing exon 4. The third set of primers/probe E8E9 was used to detect total gene level of ATXN3. The qPCR reactions were prepared in 384-well plates in 10 μL volume, using TaqMan™ Fast Advanced Master Mix with primers and probes shown in the table below. Reactions were run in a Quant Studio 6 qPCR instrument with default settings.
The primers and probes are listed below in Table 3.

SMILES	pIC50 (total ATXN3 protein)	pEC50 [1]
Cc1c(C[C@H](C)N)sc2c(NCc3cccs3)nnnc12 [Compound 2, (S)-6-(2-aminopropyl)-7-methyl-N-(thiophen-2-ylmethyl)thieno[3,2-d][1,2,3]triazin-4-amine]	5.30 to 6.30	5.30 to 6.30
Cc1csc2c(NCc3ccco3)nnnc12 [Compound 3, N-(furan-2-ylmethyl)-7-methylthieno[3,2-d][1,2,3]triazin-4-amine]	≤ 5.00	≤ 5.00
Cc1csc2c(NCc3cccs3)nnnc12 [Compound 1, 7-methyl-N-(thiophen-2-ylmethyl)thieno[3,2-d][1,2,3]triazin-4-amine]	≤ 5.00	≤ 5.00
Cc1c(C[C@H](C)N)sc2c(NCc3ccco3)nnnc12 [Compound 4, (S)-6-(2-aminopropyl)-N-(furan-2-ylmethyl)-7-methylthieno[3,2-d][1,2,3]triazin-4-amine]	5.30 to 6.30	≤ 5.00
